Results: US20100292231A1, “Indazole Compounds for Treating Inflammatory Disorders, Demyelinating Disorders and Cancers” (priority 2007, published 2010)

Legend:
Assay in all cases: SelectScreen kinase specificity survey
Assay type in all cases: biochemical
Details in all cases: estimated, abridged dose response curve, read-out: Kinase inhibitory activity EC50
MAPK10 (JNK3) = target: T1, MAPK10 (JNK3) (Homo sapiens, UniProt P53779)
T1 construct: purchased Invitrogen (SelectScreen platform)
Experimental: (§1) Testing of the compounds described in this invention was carried out using the SelectScreen™ platform from Invitrogen, Inc. (Carlsbad. Calif., USA) and the details of its performance are readily viewed via the web by linking to: http://www.invitrogen.com/downloads/SelectScrn_Brochure.pdf.
(§2) Briefly, the approach is based on treating each specific kinase with a unique substrate and optical reporter system in the presence of ATP at 100 micromolar. In controls, the substrate is phosphorylated and a baseline optimal response is recorded.
(§3) The compounds were then re-tested by adding graded amounts of putative inhibitor which were added in 5 separate increments to generate a dose response curve. The latter is obtained by fitting to a 4 parameter Hill equation, a sigmoid saturation equation.
(§4) The same assay system described in Example 2 can be applied in the determination of kinase specificity. It is well understood by medicinal chemists in the development of kinase inhibitors that the resulting molecules often lack specificity. Not only are homologous kinases inhibited by the same class of compounds, but also non-homologous kinases can be affected by allosteric, induced, activated vs inactivated conformation, and protein folding interactions with the putative inhibitor, which otherwise had been designed to be specific. These off target effects are difficult to predict and can only be ruled in or out by empirically surveying a large set of kinases. It is also understood that changes to scaffolds and variation in their chemical decorations may influence the extent of promiscuity in the patterns of kinase inhibition across kinase classes.
(§5) The following experiment was conducted to address this issue. The indazole compound (IV), described in Example 2 and representative of the new genus was tested along with Symadex against a panel of 230 kinases representative of all known kinases classes. Included in the survey were the Flt3, its mutant, and close relatives in the Class III receptor tyrosine kinase class, together with serine-threonine kinases and atypical kinases many of which share no homology of active site with Flt3 as shown, for example, in the respective “genecard” for each kinase and available for inspection at on the web at http://www.genecards.org/.
(§6) Table 3 lists the estimated EC50 values from an abridged dose response curve for Symadex (C-1311) and CF-123. The kinases are listed alphabetically by Group and Family.

SYK = target: T2, SYK (Homo sapiens, UniProt P43405)
T2 construct: purchased Invitrogen (SelectScreen)
Experimental: as §1, §2, §3, §4, §5, §6

ROS1 (ROS) = target: T3, ROS1 (ROS) (Homo sapiens, UniProt P08922)
T3 construct: purchased Invitrogen (SelectScreen)
Experimental: as §1, §2, §3, §4, §5, §6

FER = target: T4, FER (Homo sapiens, UniProt P16591)
T4 construct: purchased Invitrogen (SelectScreen service)
Experimental: as §1, §2, §3, §4, §5, §6

TYRO3 (RSE) = target: T5, TYRO3 (RSE) (Homo sapiens, UniProt Q06418)
T5 construct: purchased Invitrogen (SelectScreen service)
Experimental: as §1, §2, §3, §4, §5, §6

EPHB3 = target: T6, EPHB3 (Homo sapiens, UniProt P54753)
T6 construct: purchased Invitrogen (SelectScreen service)
Experimental: as §1, §2, §3, §4, §5, §6

IKBKB (IKK beta) = target: T7, IKBKB (IKK beta) (Homo sapiens, UniProt O14920)
T7 construct: purchased Invitrogen, Inc. (SelectScreen service)
Experimental: as §1, §2, §3, §4, §5, §6

ROCK2 = target: T8, ROCK2 (Homo sapiens, UniProt O75116)
T8 construct: purchased Invitrogen (SelectScreen platform)
Experimental: as §1, §2, §3, §4, §5, §6

PDK1 = target: T9, PDK1 (Homo sapiens, UniProt O15530)
T9 construct: purchased Invitrogen (SelectScreen platform)
Experimental: as §1, §2, §3, §4, §5, §6

FLT1 (VEGFR1) = target: T10, FLT1 (VEGFR1) (Homo sapiens, UniProt P17948)
T10 construct: purchased Invitrogen, Inc. (SelectScreen platform)
Experimental: as §1, §2, §3, §4, §5, §6

PRKCZ (PKC zeta) = target: T11, PRKCZ (PKC zeta) (Homo sapiens, UniProt Q05513)
T11 construct: purchased Invitrogen, Inc. (SelectScreen platform)
Experimental: as §1, §2, §3, §4, §5, §6

PRKCB1 (PKC beta I) = target: T12, PRKCB1 (PKC beta I) (Homo sapiens, UniProt P05771)
T12 construct: purchased Invitrogen (SelectScreen platform)
Experimental: as §1, §2, §3, §4, §5, §6

PRKCG (PKC gamma) = target: T13, PRKCG (PKC gamma) (Homo sapiens, UniProt P05129)
T13 construct: purchased Invitrogen, Inc. (SelectScreen platform)
Experimental: as §1, §2, §3, §4, §5, §6

RET = target: T14, RET (Homo sapiens, UniProt P07949)
T14 construct: purchased Invitrogen (SelectScreen)
Experimental: as §1, §2, §3, §4, §5, §6

CLK2 = target: T15, CLK2 (Homo sapiens, UniProt P49760)
T15 construct: purchased Invitrogen (SelectScreen platform)
Experimental: as §1, §2, §3, §4, §5, §6

ITK = target: T16, ITK (Homo sapiens, UniProt Q08881)
T16 construct: purchased Invitrogen (SelectScreen)
Experimental: as §1, §2, §3, §4, §5, §6

SGKL (SGK3) = target: T17, SGKL (SGK3) (Homo sapiens, UniProt Q96BR1)
T17 construct: purchased Invitrogen, Inc. (SelectScreen platform)
Experimental: as §1, §2, §3, §4, §5, §6

FES (FPS) = target: T18, FES (FPS) (Homo sapiens, UniProt P07332)
T18 construct: purchased Invitrogen (SelectScreen service)
Experimental: as §1, §2, §3, §4, §5, §6

CSNK1G1 (CK1 gamma 1) = target: T19, CSNK1G1 (CK1 gamma 1) (Homo sapiens, UniProt Q9HCP0)
T19 construct: purchased Invitrogen (SelectScreen platform)
Experimental: as §1, §2, §3, §4, §5, §6

CAMK2A (CaMKII alpha) = target: T20, CAMK2A (CaMKII alpha) (Homo sapiens, UniProt Q9UQM7)
T20 construct: purchased Invitrogen, Inc. (SelectScreen platform)
Experimental: as §1, §2, §3, §4, §5, §6

MINK1 (ZC3) = target: T21, MINK1 (ZC3) (Homo sapiens, UniProt Q8N4C8)
T21 construct: purchased Invitrogen (SelectScreen platform)
Experimental: as §1, §2, §3, §4, §5, §6

LTK (TYK1) = target: T22, LTK (TYK1) (Homo sapiens, UniProt P29376)
T22 construct: purchased Invitrogen (SelectScreen platform)
Experimental: as §1, §2, §3, §4, §5, §6

AURKB (Aurora B) = target: T23, AURKB (Aurora B) (Homo sapiens, UniProt Q96GD4)
T23 construct: purchased Invitrogen, Inc. (SelectScreen service)
Experimental: as §1, §2, §3, §4, §5, §6

ALK = target: T24, ALK (Homo sapiens, UniProt Q9UM73)
T24 construct: purchased Invitrogen (SelectScreen platform)
Experimental: as §1, §2, §3, §4, §5, §6

EPHA8 = target: T25, EPHA8 (Homo sapiens, UniProt P29322)
T25 construct: purchased Invitrogen (SelectScreen service)
Experimental: as §1, §2, §3, §4, §5, §6

MAPKAPK5 (PRAK) = target: T26, MAPKAPK5 (PRAK) (Homo sapiens, UniProt Q8IW41)
T26 construct: purchased Invitrogen, Inc. (SelectScreen platform)
Experimental: as §1, §2, §3, §4, §5, §6

EGFR (ErbB1) T790M = target: T27, EGFR (ErbB1) T790M (Homo sapiens, UniProt P00533, T790M)
T27 construct: purchased Invitrogen (SelectScreen service)
Experimental: as §1, §2, §3, §4, §5, §6

LYN B = target: T28, LYN B (Homo sapiens, UniProt P07948)
T28 construct: purchased Invitrogen (SelectScreen)
Experimental: as §1, §2, §3, §4, §5, §6

T15 sequence (P49760 whole entry): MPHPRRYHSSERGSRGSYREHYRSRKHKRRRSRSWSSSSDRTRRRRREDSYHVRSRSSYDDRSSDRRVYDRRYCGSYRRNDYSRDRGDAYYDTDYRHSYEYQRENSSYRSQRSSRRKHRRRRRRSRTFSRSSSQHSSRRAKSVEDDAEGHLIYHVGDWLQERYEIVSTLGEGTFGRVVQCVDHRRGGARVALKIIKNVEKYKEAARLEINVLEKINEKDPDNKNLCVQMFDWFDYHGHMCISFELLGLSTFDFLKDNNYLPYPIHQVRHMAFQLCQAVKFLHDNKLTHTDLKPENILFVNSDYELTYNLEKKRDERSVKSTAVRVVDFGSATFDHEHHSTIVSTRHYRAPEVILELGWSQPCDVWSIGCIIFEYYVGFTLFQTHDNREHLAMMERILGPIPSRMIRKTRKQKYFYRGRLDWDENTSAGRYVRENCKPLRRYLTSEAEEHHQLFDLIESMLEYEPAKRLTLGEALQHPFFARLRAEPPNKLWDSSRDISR
T8 sequence (O75116 whole entry): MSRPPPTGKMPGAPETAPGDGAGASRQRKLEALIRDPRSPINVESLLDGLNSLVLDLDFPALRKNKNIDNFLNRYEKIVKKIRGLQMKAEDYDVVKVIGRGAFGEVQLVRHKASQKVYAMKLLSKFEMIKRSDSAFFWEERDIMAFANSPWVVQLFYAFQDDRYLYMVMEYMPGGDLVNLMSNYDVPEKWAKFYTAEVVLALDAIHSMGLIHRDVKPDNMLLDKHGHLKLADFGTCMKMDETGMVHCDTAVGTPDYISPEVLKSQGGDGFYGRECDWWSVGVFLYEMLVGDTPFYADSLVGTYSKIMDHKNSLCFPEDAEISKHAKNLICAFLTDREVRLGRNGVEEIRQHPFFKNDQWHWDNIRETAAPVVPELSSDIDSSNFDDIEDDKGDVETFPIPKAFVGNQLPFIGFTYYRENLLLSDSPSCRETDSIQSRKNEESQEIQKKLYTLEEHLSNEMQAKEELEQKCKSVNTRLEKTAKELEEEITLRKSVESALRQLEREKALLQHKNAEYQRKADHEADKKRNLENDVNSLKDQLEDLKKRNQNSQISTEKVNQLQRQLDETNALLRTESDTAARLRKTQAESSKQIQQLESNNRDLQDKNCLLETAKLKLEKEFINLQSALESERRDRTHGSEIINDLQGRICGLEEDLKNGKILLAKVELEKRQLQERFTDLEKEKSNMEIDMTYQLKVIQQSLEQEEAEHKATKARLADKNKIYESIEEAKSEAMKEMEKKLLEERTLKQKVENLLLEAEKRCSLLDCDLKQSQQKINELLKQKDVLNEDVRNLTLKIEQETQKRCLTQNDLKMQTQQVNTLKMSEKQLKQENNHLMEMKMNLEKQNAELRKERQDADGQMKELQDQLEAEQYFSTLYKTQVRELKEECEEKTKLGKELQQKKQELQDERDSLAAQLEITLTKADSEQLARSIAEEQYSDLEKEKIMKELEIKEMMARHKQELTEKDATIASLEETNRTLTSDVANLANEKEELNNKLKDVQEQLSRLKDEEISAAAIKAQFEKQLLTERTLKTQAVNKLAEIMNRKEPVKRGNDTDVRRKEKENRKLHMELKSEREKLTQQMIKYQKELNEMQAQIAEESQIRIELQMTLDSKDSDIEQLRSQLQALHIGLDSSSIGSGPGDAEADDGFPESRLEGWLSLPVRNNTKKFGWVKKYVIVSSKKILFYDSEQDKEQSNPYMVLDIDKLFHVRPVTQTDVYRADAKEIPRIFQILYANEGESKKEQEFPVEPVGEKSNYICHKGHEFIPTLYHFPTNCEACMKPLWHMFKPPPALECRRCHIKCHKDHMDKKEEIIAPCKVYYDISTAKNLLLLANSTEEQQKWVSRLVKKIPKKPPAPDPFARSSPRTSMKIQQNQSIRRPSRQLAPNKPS
T24 sequence (Q9UM73 19-1620): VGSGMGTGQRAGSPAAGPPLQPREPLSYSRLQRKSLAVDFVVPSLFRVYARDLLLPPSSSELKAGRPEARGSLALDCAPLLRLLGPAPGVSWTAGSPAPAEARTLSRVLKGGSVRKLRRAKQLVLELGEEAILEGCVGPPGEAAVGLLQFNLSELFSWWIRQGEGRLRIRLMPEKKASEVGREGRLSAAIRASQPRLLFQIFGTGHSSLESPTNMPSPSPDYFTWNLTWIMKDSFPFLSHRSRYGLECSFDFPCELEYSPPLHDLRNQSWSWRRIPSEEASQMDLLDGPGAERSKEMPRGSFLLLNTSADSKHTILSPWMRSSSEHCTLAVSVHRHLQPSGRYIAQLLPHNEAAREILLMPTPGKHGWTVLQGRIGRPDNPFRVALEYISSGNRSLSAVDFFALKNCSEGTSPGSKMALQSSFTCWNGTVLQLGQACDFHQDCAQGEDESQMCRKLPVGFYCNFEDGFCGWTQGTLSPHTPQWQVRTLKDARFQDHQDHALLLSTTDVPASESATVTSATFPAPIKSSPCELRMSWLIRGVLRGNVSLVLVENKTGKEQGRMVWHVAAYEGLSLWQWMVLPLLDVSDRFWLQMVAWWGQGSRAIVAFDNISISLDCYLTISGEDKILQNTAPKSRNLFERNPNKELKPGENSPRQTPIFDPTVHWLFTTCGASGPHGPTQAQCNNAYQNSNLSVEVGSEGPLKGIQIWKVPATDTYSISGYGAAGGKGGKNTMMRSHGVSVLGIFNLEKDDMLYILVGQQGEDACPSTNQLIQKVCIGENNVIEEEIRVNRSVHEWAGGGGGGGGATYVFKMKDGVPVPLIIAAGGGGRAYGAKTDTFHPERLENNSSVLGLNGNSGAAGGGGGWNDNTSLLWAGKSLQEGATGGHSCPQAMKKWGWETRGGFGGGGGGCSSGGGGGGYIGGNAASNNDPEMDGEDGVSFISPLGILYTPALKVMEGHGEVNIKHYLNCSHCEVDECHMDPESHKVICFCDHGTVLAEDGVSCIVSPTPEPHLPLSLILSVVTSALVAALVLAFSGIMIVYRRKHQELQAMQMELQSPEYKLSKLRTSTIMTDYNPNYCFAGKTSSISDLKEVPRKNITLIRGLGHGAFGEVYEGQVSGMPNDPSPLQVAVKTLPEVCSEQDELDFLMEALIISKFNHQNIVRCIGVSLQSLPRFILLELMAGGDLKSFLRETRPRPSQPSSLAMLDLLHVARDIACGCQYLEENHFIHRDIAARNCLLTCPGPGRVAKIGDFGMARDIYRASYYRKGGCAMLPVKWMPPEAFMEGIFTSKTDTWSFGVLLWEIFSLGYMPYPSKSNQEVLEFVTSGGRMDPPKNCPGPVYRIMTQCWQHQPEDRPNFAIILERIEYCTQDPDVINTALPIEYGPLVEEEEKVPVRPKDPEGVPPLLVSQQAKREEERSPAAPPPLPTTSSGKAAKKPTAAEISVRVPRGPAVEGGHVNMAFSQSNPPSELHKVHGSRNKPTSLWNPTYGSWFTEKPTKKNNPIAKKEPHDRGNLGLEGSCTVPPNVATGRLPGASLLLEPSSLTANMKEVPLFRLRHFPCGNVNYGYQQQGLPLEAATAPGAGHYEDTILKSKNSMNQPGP
T25 sequence (P29322 28-1005): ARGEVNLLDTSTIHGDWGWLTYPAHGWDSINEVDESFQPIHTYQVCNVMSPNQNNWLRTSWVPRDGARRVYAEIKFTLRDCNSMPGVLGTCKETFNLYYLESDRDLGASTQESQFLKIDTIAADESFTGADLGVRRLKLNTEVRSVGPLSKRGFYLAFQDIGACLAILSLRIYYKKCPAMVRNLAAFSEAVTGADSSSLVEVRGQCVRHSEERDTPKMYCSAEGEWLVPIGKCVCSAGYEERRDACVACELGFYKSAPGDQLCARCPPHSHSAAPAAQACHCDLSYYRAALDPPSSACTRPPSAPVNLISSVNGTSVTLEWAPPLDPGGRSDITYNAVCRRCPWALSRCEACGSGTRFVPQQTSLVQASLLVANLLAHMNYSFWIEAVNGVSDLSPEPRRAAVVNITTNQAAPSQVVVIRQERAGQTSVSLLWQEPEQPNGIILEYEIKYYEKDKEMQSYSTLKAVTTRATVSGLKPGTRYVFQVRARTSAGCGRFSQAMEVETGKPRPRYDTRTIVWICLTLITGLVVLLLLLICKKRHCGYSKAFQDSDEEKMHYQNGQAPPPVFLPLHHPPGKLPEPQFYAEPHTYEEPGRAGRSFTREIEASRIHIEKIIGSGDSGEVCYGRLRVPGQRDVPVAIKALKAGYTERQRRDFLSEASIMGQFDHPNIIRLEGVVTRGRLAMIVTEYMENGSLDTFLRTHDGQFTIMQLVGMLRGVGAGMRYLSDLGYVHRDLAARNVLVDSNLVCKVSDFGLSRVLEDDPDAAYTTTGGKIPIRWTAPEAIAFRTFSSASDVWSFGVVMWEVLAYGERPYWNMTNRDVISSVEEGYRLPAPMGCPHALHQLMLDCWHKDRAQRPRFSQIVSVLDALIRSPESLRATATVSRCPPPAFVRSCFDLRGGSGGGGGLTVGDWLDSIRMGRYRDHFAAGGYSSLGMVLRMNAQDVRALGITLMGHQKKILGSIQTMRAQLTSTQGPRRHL
T11 sequence (Q05513 whole entry): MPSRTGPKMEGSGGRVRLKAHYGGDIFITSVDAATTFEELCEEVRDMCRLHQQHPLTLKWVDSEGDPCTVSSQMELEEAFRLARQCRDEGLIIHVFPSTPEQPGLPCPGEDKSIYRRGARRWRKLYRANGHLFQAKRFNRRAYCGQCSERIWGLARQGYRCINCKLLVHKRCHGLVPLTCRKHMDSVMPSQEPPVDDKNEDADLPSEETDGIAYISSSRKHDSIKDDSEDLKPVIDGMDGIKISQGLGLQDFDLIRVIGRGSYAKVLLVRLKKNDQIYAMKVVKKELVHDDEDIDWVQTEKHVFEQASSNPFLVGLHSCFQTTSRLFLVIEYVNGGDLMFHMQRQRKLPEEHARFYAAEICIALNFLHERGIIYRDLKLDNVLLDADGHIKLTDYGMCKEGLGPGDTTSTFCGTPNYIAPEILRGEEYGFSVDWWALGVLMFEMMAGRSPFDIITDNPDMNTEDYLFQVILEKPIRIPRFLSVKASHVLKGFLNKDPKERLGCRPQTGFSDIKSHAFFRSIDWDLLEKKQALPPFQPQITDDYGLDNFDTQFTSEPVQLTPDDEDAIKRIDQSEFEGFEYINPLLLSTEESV

Structure (SMILES) | EC50 (MAPK10 (JNK3)) [nM] | EC50 (SYK) [nM] | EC50 (ROS1 (ROS)) [nM] | EC50 (FER) [nM] | EC50 (TYRO3 (RSE)) [nM] | EC50 (EPHB3) [nM] | EC50 (IKBKB (IKK beta)) [nM] | EC50 (ROCK2) [nM] | EC50 (PDK1) [nM] | EC50 (FLT1 (VEGFR1)) [nM] | EC50 (PRKCZ (PKC zeta)) [nM] | EC50 (PRKCB1 (PKC beta I)) [nM] | EC50 (PRKCG (PKC gamma)) [nM] | EC50 (RET) [nM] | EC50 (CLK2) [nM] | EC50 (ITK) [nM] | EC50 (SGKL (SGK3)) [nM] | EC50 (FES (FPS)) [nM] | EC50 (CSNK1G1 (CK1 gamma 1)) [nM] | EC50 (CAMK2A (CaMKII alpha)) [nM] | further results
CN(C)CCCNc1ccc2ncn3c4ccc5[nH]ncc5c4c(=O)c1c23 [Compound (IV)] | 2810 | > 5000 | 2660 | > 5000 | 3570 | > 5000 | 2800 | 963 | 2900 | > 5000 | > 5000 | > 5000 | > 5000 | 587 | 55 | 637 | > 5000 | 2250 | > 5000 | 789 | EC50 (MINK1 (ZC3)): 1360 nM; EC50 (LTK (TYK1)): > 5000 nM; EC50 (AURKB (Aurora B)): > 5000 nM; EC50 (ALK): 4630 nM; EC50 (EPHA8): 4150 nM; EC50 (MAPKAPK5 (PRAK)): > 5000 nM; EC50 (EGFR (ErbB1) T790M): 4010 nM; EC50 (LYN B): 426 nM
CCN(CC)CCNc1ccc2ncn3c4ccc(O)cc4c(=O)c1c23 [Symadex, 5-(2-(diethylamino)ethylamino)-8-hydroxy-6H-imidazo[4,5,1-de]acridin-6-one, reference compound] | > 5000 | 3910 | > 5000 | > 5000 | 2440 | > 5000 | > 5000 | > 5000 | > 5000 | > 5000 | > 5000 | > 5000 | 1890 | 1120 | 315 | > 5000 | > 5000 | 1050 | > 5000 | > 5000 | EC50 (MINK1 (ZC3)): 1090 nM; EC50 (LTK (TYK1)): > 5000 nM; EC50 (AURKB (Aurora B)): > 5000 nM; EC50 (ALK): 2480 nM; EC50 (EPHA8): 3350 nM; EC50 (MAPKAPK5 (PRAK)): > 5000 nM; EC50 (EGFR (ErbB1) T790M): 2900 nM; EC50 (LYN B): 812 nM
